According to patent publication US9944647B2 (Incyte Corporation, priority 2015, dated 2018):

biological target: LSD-1 enzyme (Homo sapiens (Human), UniProt O60341); experiment: LANCE LSD1/KDM1A demethylase assay (LSD1 histone demethylase biochemical assay); settings: 1 nM LSD-1 enzyme, 1 hour preincubation at 25° C., Biotin-labeled Histone H3 peptide substrate
Procedure: Example A: LSD1 Histone Demethylase Biochemical Assay
LANCE LSD1/KDM1A demethylase assay—10 μL of 1 nM LSD-1 enzyme (ENZO BML-SE544-0050) in the assay buffer (50 mM Tris, pH 7.5, 0.01% Tween-20, 25 mM NaCl, 5 mM DTT) were preincubated for 1 hour at 25° C. with 0.8 μL compound/DMSO dotted in black 384 well polystyrene plates. […] Reactions were stopped by addition of 10 μL 1×LANCE Detection Buffer (PerkinElmer CR97-100) supplemented with 1.5 nM Eu-anti-unmodified H3K4 Antibody (PerkinElmer TRF0404), and 225 nM LANCE Ultra Streptavidin (PerkinElmer TRF102) along with 0.9 mM Tranylcypromine-HCl (Millipore 616431). After stopping the reactions plates were incubated for 30 minutes and read on a PHERAstar FS plate reader (BMG Labtech).

Row | Compound | IC50 [nM]
1 | CN1CCC[C@@H](COc2nc(-c3ccc(C#N)cc3)c(-c3ccc(N(C)C)nc3)c3nccn23)C1 [Example 4, 4-(8-[6-(dimethylamino)pyridin-3-yl]-5-{[(3R)-1-methylpiperidin-3-yl]methoxy}imidazo[1,2-c]pyrimidin-7-yl)benzonitrile] | ≤ 50
2 | CN1CC[C@@H](COc2nc(-c3ccc(C#N)cc3)c(-c3cnc4c(c3)OCCN4C)c3nccn23)C1 [Example 24, 4-(8-(4-methyl-3,4-dihydro-2H-pyrido[3,2-b][1,4]oxazin-7-yl)-5-{[(3R)-1-methylpyrrolidin-3-yl]methoxy}imidazo[1,2-c]pyrimidin-7-yl)benzonitrile] | ≤ 50
3 | Cn1c(=O)oc2cc(-c3c(-c4ccc(C#N)cc4)nc(OC[C@@H]4CCCN(CC(C)(C)O)C4)n4ccnc34)ccc21 [Example 135, 4-[5-{[(3R)-1-(2-hydroxy-2-methylpropyl)piperidin-3-yl]methoxy}-8-(3-methyl-2-oxo-2,3-dihydro-1,3-benzoxazol-6-yl)imidazo[1,2-c]pyrimidin-7-yl]benzonitrile] | 50 to 500
4 | CN1C(=O)Cc2cc(-c3c(-c4ccc(C#N)cc4)nc(N4CCC(N(C)C)CC4)n4ccnc34)ccc21 [Example 62, 4-[5-[4-(dimethylamino)piperidin-1-yl]-8-(1-methyl-2-oxo-2,3-dihydro-1H-indol-5-yl)imidazo[1,2-c]pyrimidin-7-yl]benzonitrile] | ≤ 50
5 | CN(C)C1CCN(c2nc(-c3ccc(C#N)cc3)c(-c3ccc4c(c3)nc(C(F)F)n4C)c3nccn23)CC1 [Example 52, 4-{8-[2-(difluoromethyl)-1-methyl-1H-benzimidazol-5-yl]-5-[4-(dimethylamino)piperidin-1-yl]imidazo[1,2-c]pyrimidin-7-yl}benzonitrile] | ≤ 50
6 | Cc1ccc(-c2c(-c3ccc(C#N)cc3)nc(OC[C@@H]3CCCN(C)C3)n3ccnc23)c(CO)c1 [Example 72, 4-(8-[2-(hydroxymethyl)-4-methylphenyl]-5-{[(3R)-1-methylpiperidin-3-yl]methoxy}imidazo[1,2-c]pyrimidin-7-yl)benzonitrile] | ≤ 50
7 | COc1ccc(-c2c(-c3ccc(C#N)cc3)nc(OC[C@@H]3CCCN(CCO)C3)n3ccnc23)cn1 [Example 56, 4-[5-{[(3R)-1-(2-hydroxyethyl)piperidin-3-yl]methoxy}-8-(6-methoxypyridin-3-yl)imidazo[1,2-c]pyrimidin-7-yl]benzonitrile] | ≤ 50
8 | CN1CCC[C@@H](COc2nc(-c3ccc(C#N)cc3)c(-c3ccc(CN(C)C(=O)N(C)C)c(F)c3)c3nccn23)C1 [Example 85, N-[4-(7-(4-cyanophenyl)-5-{[(3R)-1-methylpiperidin-3-yl]methoxy}imidazo[1,2-c]pyrimidin-8-yl)-2-fluorobenzyl]-N,N′,N′-trimethylurea] | ≤ 50
9 | CN1CCC[C@@H](COc2nc(-c3ccc(C#N)cc3)c(-c3ccc(N4CCCC4=O)nc3)c3nccn23)C1 [Example 16, 4-{5-{[(3R)-1-methylpiperidin-3-yl]methoxy}-8-[6-(2-oxopyrrolidin-1-yl)pyridin-3-yl]imidazo[1,2-c]pyrimidin-7-yl}benzonitrile] | 50 to 500
10 | Cc1ccc(-c2c(-c3ccc(C#N)cc3)nc(N3CCC(N(C)C)CC3)n3ccnc23)cn1 [Example 112, 4-[5-[4-(dimethylamino)piperidin-1-yl]-8-(6-methylpyridin-3-yl)imidazo[1,2-c]pyrimidin-7-yl]benzonitrile] | 50 to 500
11 | CN1CCC[C@@H](COc2nc(-c3ccc(C#N)cc3)c(-c3ccc4c(c3)C(O)CC4)c3nccn23)C1 (stereo partly drawn) [Example 123, 4-(8-(3-hydroxy-2,3-dihydro-1H-inden-5-yl)-5-{[(3R)-1-methylpiperidin-3-yl]methoxy}imidazo[1,2-c]pyrimidin-7-yl)benzonitrile] | ≤ 50
12 | CCN1CCC[C@@H](COc2nc(-c3ccc(C#N)cc3)c(-c3cnc4c(cnn4C)c3)c3nccn23)C1 [Example 29, 4-[5-{[(3R)-1-ethylpiperidin-3-yl]methoxy}-8-(1-methyl-1H-pyrazolo[3,4-b]pyridin-5-yl)imidazo[1,2-c]pyrimidin-7-yl]benzonitrile] | ≤ 50
13 | COc1ncc(-c2c(-c3ccc(C#N)cc3)nc(N3CCC(N(C)C)CC3)n3ccnc23)cc1F [Example 49, 4-[5-[4-(dimethylamino)piperidin-1-yl]-8-(5-fluoro-6-methoxypyridin-3-yl)imidazo[1,2-c]pyrimidin-7-yl]benzonitrile] | ≤ 50
14 | CN1CCC[C@@H](COc2nc(-c3ccc(C#N)cc3)c(-c3cnc4c(c3)CCN4C)c3nccn23)C1 [Example 77, 4-(8-(1-mcthyl-2.3-dihydro-1H-pyrrolo[2,3-b]pyridin-5-yl)-5-{[(3R)-1-methylpiperidin-3-yl]methoxy}imidazo[1,2-c]pyrimidin-7-yl)benzonitrile] | ≤ 50
15 | Cc1cc(-c2c(-c3ccc(C#N)cc3)nc(N3CCC(N(C)C)CC3)n3ccnc23)cnc1C [Example 68, 4-[5-[4-(dimethylamino)piperidin-1-yl]-8-(5,6-dimethylpyridin-3-yl)imidazo[1,2-c]pyrimidin-7-yl]benzonitrile] | ≤ 50
16 | C[C@H](O)CN1CCC[C@@H](COc2nc(-c3ccc(C#N)cc3)c(-c3cnc4c(cnn4C)c3)c3nccn23)C1 [Example 137, 4-[5-({(3R)-1-[(2S)-2-hydroxypropyl]piperidin-3-yl}methoxy)-8-(1-methyl-1H-pyrazolo[3,4-b]pyridin-5-yl)imidazo[1,2-c]pyrimidin-7-yl]benzonitrile] | ≤ 50
17 | CN(C)C1CCN(c2nc(-c3ccc(C#N)cc3)c(-c3ccc4c(c3)C(O)CC4)c3nccn23)CC1 (centres unmarked) [Example 121, 4-[5-[4-(dimethylamino)piperidin-1-yl]-8-(3-hydroxy-2,3-dihydro-1H-inden-5-yl)imidazo[1,2-c]pyrimidin-7-yl]benzonitrile] | ≤ 50
18 | CN1CC[C@@H](COc2nc(-c3ccc(C#N)cc3)c(-c3ccc4c(c3)ncn4C)c3nccn23)C1 [Example 25, 4-(8-(1-methyl-1H-benzimidazol-5-yl)-5-{[(3R)-1-methylpyrrolidin-3-yl]methoxy}imidazo[1,2-c]pyrimidin-7-yl)benzonitrile] | 50 to 500
19 | COC(=O)N(C)c1ccc(-c2c(-c3ccc(C#N)cc3)nc(N3CCC(N(C)C)CC3)n3ccnc23)cn1 [Example 67] | 50 to 500
20 | CN(C)C1CCN(c2nc(-c3ccc(C#N)cc3)c(-c3ccc(N4CCCC4=O)nc3)c3nccn23)CC1 [Example 50, 4-{5-[4-(dimethylamino)piperidin-1-yl]-8-[6-(2-oxopyrrolidin-1-yl)pyridin-3-yl]imidazo[1,2-c]pyrimidin-7-yl}benzonitrile] | 50 to 500
21 | Cc1cc(-c2c(-c3ccc(C#N)cc3)nc(OC[C@@H]3CCCN(C)C3)n3ccnc23)ccc1CO [Example 35, 4-(8-[4-(hydroxymethyl)-3-methylphenyl]-5-{[(3R)-1-methylpiperidin-3-yl]methoxy}imidazo[1,2-c]pyrimidin-7-yl)benzonitrile] | ≤ 50
22 | COc1ccc(-c2c(-c3ccc(C#N)cc3)nc(OC[C@@H]3CCCN(C)C3)n3ccnc23)cn1 [Example 3, 4-(8-(6-methoxypyridin-3-yl)-5-{[(3R)-1-methylpiperidin-3-yl]methoxy}imidazo[1,2-c]pyrimidin-7-yl)benzonitrile] | ≤ 50
23 | CN(C)C1CCN(c2nc(-c3ccc(C#N)cc3)c(-c3cnc4c(cnn4C)c3)c3nccn23)CC1 [Example 37, 4-[5-[4-(dimethylamino)piperidin-1-yl]-8-(1-methyl-1H-pyrazolo[3,4-b]pyridin-5-yl)imidazo[1,2-c]pyrimidin-7-yl]benzonitrile] | ≤ 50
24 | CN(C)C1CCN(c2nc(-c3ccc(C#N)cc3)c(-c3ccc4c(c3)oc(=O)n4C)c3nccn23)CC1 [Example 47, 4-[5-[4-(dimethylamino)piperidin-1-yl]-8-(3-methyl-2-oxo-2,3-dihydro-1,3-benzoxazol-6-yl)imidazo[1,2-c]pyrimidin-7-yl]benzonitrile] | ≤ 50
25 | Cc1ccc(-c2c(-c3ccc(C#N)cc3)nc(OC[C@@H]3CCCN(C)C3)n3ccnc23)cc1 [Example 1, 4-(8-(4-methylphenyl)-5-{[(3R)-1-methylpiperidin-3-yl]methoxy}imidazo[1,2-c]pyrimidin-7-yl)benzonitrile] | ≤ 50
26 | CN1CCC[C@@H](COc2nc(-c3ccc(C#N)cc3)c(-c3ccc4cnn(C)c4c3)c3nccn23)C1 [Example 18, 4-(8-(1-methyl-1H-indazol-6-yl)-5-{[(3R)-1-methylpiperidin-3-yl]methoxy}imidazo[1,2-c]pyrimidin-7-yl)benzonitrile] | 50 to 500
27 | CN(C)C1CCN(c2nc(-c3ccc(C#N)cc3)c(-c3ccc4nccnc4c3)c3nccn23)CC1 [Example 126, 4-{5-[4-(dimethylamino)piperidin-1-yl]-8-quinoxalin-6-ylimidazo[1,2-c]pyrimidin-7-yl}benzonitrile] | 50 to 500
28 | CN1CCC[C@@H](COc2nc(-c3ccc(C#N)cc3)c(-c3ccc4c(c3)n(C)c(=O)n4C)c3nccn23)C1 [Example 44, 4-(8-(1,3-dimethyl-2-oxo-2,3-dihydro-1H-benzimidazol-5-yl)-5-{[(3R)-1-methylpiperidin-3-yl]methoxy}imidazo[1,2-c]pyrimidin-7-yl)benzonitrile] | 50 to 500
29 | Cc1ncc(-c2c(-c3ccc(C#N)cc3)nc(N3CCC(N(C)C)CC3)n3ccnc23)cc1F [Example 113, 4-[5-[4-(dimethylamino)piperidin-1-yl]-8-(5-fluoro-6-methylpyridin-3-yl)imidazo[1,2-c]pyrimidin-7-yl]benzonitrile] | ≤ 50
